Laboratory results taken from patent US20260234116A1, “CYTOTOXIC EPOXYKETONE COMPOUNDS, PRECURSORS, COMPOSITIONS, AND METHODS OF USE” (Memorial Sloan-Kettering Cancer Center, priority 2023, published 2026).

Target: EpnF (Streptomyces hygroscopicus, UniProt V5RMU9)
Experiment: Semiquantitative epoxide capture assay (EpnF-catalyzed epoxyketone formation)
Assay type: biochemical
Conditions: 1 μM EpnF, 250 μM β-ketoacid substrate, 1 h; positive control 11n (FIG. 1)
Protocol: Recombinant EpnF was diluted to 1 μM in 180 μL EpnF Buffer in an 1.5 mL Eppendorf tube. The β-ketoacid 11 was added at various concentrations to a total reaction volume of 200 μL. The mixture was incubated in a heated shaker at 37° C. and 225 rpm for 1 h. The reaction mixture (30 μL×3 technical replicates) was transferred to a white, opaque 96-well plate (PerkinElmer, OptiPlate-96). Each plate also contained 30 μL×3 technical replicates of EpnF Buffer as a negative control. To each well, 15 μL of 125 mM nicotinamide in EpnF Buffer was added and mixed by pipetting. The plate was sealed with an adhesive foil cover (VWR Adhesive Foil for Microplates) and heated in an oven at 80° C. for 1 h. The plate was cooled to rt and 25 μL of 15% (v/v) acetophenone in EtOH and 25 μL of 1 M potassium hydroxide in EtOH were added to each well, then mixed by pipetting. The plate was cooled on ice for 10 min, then 125 μL formic acid was added to each well. The plate was resealed and heated in an oven at 100° C. for 5 min. The plate was cooled on ice for 5-10 min, then analyzed (λex 370 nm, λem 430 nm) on a fluorescence plate reader (Molecular Devices Spectramax M3).
We adapted a reported epoxide capture assay [Nelis, H. J. C. F.; Sinsheimer, J. E. (1981) A sensitive fluorimetric procedure for the determination of aliphatic epoxides under physiological conditions. Anal. Biochem. 115, 151-157.] to 96-well plate format to detect formation of the epoxyketone products semiquantitatively. Each β-ketoacid substrate 11 was incubated with recombinant, purified EpnF (1 h), then reacted with nicotinamide and acetophenone (1 h) to form a fluorescent 1,6-naphthyridinone 24. The fluorescent signals were normalized to that resulting from the known substrate β-ketoacid 11n as a positive control [Zabala, D.; Cartwright, J. W.; Roberts, D. M.; Law, B. J. C.; Song, L.; Samborskyy, M.; Leadlay, P. F.; Micklefield, J.; Challis, G. L. (2016) A flavin-dependent decarboxylase-dehydrogenase-monooxygenase assembles the warhead of α,β-epoxyketone proteasome inhibitors. J. Am. Chem. Soc. 138, 4342-4345.].

Sequence of EpnF (V5RMU9 entry or part of it): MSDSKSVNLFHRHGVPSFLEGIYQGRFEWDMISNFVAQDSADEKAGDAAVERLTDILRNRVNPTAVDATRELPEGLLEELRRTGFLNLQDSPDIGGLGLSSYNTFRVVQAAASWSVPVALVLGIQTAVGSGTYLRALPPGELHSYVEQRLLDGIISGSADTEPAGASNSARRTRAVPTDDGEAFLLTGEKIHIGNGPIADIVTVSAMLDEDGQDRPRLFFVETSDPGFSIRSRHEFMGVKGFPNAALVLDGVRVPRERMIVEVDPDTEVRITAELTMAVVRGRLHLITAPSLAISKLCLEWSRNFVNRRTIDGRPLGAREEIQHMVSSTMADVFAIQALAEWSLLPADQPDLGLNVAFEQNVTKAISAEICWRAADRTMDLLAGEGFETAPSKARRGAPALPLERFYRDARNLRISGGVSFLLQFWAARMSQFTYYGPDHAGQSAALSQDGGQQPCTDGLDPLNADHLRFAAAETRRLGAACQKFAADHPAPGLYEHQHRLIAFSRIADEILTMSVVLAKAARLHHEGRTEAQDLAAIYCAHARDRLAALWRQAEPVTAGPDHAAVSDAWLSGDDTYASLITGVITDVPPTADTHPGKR

CC(C)CCCCC(=O)N[C@@H](CO)C(=O)N[C@@H](CC(C)C)C(=O)C(C)(C)C(=O)O [Compound 11a, (4S)-4-[(2S)-3-Hydroxy-2-(6-methylheptanamido)propanamido]-2,2,6-trimethyl-3-oxoheptanoic acid]
EpnF-catalyzed formation of epoxyketone (epoxide capture): levels comparable to that of the positive control
